According to ChEMBL document CHEMBL3576799, “Aranciamycins I and J, Antimycobacterial Anthracyclines from an Australian Marine-Derived Streptomyces sp” (J Nat Prod, 2015):
pIC50: −log10 of the molar value. Converted amounts (≈) assume the structure as drawn.

test system: Mycobacterium tuberculosis; assay: Antimycobacterial activity against Mycobacterium bovis BCG; format: functional, organism-based; conditions: variant bovis BCG

Point of comparison: `CO[C@H]1[C@H](O[C@H]2C[C@](C)(O)Cc3cc4c(c(O)c32)C(=O)c2c(O)cccc2C4=O)O[C@@H](C)[C@H](O)[C@H]1O`, pIC50 5.96. Against it:
- CO[C@H]1[C@H](O[C@@H]2c3c(cc4c(c3O)C(=O)c3c(O)cccc3C4=O)C(=O)[C@@](C)(O)[C@H]2OC)O[C@@H](C)[C@H](O)[C@H]1O [ARANCIAMYCIN] — within 0.2 log units, 5.77
- C[C@@H]1O[C@@H](O[C@H]2C[C@](C)(O)Cc3cc4c(c(O)c32)C(=O)c2c(O)cccc2C4=O)[C@H](O)[C@H](O)[C@H]1O — within 0.2 log units, 6.10
- CO[C@H]1[C@H](O[C@H]2C[C@](C)(O)C(=O)c3cc4c(c(O)c32)C(=O)c2c(O)cccc2C4=O)O[C@@H](C)[C@H](O)[C@H]1O — within 0.2 log units, 6.15

Point of comparison: `CO[C@H]1[C@H](O[C@H]2C[C@](C)(O)C(=O)c3cc4c(c(O)c32)C(=O)c2c(O)cccc2C4=O)O[C@@H](C)[C@H](O)[C@H]1O`, MIC 10 µM (≈ 5.14 µg/mL). Against it:
- CO[C@H]1[C@H](O[C@@H]2c3c(cc4c(c3O)C(=O)c3c(O)cccc3C4=O)C(=O)[C@@](C)(O)[C@H]2OC)O[C@@H](C)[C@H](O)[C@H]1O [ARANCIAMYCIN] — 3-fold higher, 30 µM (≈ 16.3 µg/mL)
- C[C@@H]1O[C@@H](O[C@H]2C[C@](C)(O)Cc3cc4c(c(O)c32)C(=O)c2c(O)cccc2C4=O)[C@H](O)[C@H](O)[C@H]1O — the same, 10 µM (≈ 4.86 µg/mL)
- CO[C@H]1[C@H](O[C@H]2C[C@](C)(O)Cc3cc4c(c(O)c32)C(=O)c2c(O)cccc2C4=O)O[C@@H](C)[C@H](O)[C@H]1O — 3-fold higher, 30 µM (≈ 15 µg/mL)
